O=C(O)c1cc(O)c(O)c(O)c1
solubility (mole fraction)
Conditions | 293.15 K | 298.15 K | 303.15 K | 308.15 K | 313.15 K | 318.15 K
in acetonitrile | 0.0274 | 0.0341 | 0.0355 | 0.0378 | 0.0391 | 0.0405
in isopropanol | 0.028 | 0.0348 | 0.0362 | 0.0386 | 0.04 | 0.0409
in n-propanol | 0.0332 | 0.0413 | 0.0429 | 0.0458 | 0.0474 | 0.0486
in water | 0.00127 | 0.00148 | 0.00204 | 0.00252 | 0.0032 | 0.0038

— BigSolDB 2.1
